US10548897B2, “KSR antagonists” (Icahn School of Medicine at Mount Sinai, priority 2015, dated 2020)

Tests used:
[1] = tested on: KSR-stimulated MEK and ERK phosphorylation; assay: Cell-based reconstitution system monitoring KSR-driven MAPK signaling
Excerpt: To assess the biological function of lead compounds as Ras-MAPK pathway antagonists, a simplified cell-based reconstitution system was developed to directly monitor KSR-driven MAPK signaling. […] Based on similarity in phenotype and direct-binding activity, Compound 21 was identified as a small molecule mimic of KSR alleles that suppress oncogenic Ras mutations.

KSR2:B-RAF^F667E dimers = KSR2:B-RAF^F667E dimers (Homo sapiens, UniProt Q6VAB6); assay: Biolayer inferometry of KSR2:B-RAF dimerization (Octet Red96); format: binding; conditions: compound at 25 μM
Description: B-RAF and B-RAF mutants (F667E+/−R509H) were immobilized on sensor-heads and KSR2:MEK1 or MEK1 assembly was monitored. Curves indicate dose ranges of KSR2:MEK1 or MEK1 from 625 nM to 10 μM. In all plots, association occurred from 0 to 660 seconds, and dissociation was monitored thereafter up to 1500 seconds. Compound 21 and trametinib were added in the presence of KSR2:MEK1 at a concentration of 25 μM each.
To directly investigate the impact of Compound 21 on KSR2:B-RAF dimerization, bio-layer inferometry (BLI) was utilized to monitor real-time association and dissociation of KSR2:MEK1 or free MEK1 to a sensor tethered with immobilized B-RAF.
To specifically monitor KSR2:B-RAF dimerization relative to other possible interactions, a mutation in B-RAF^F667E was identified that eliminates binding to free MEK but not KSR2-MEK1 complexes, as shown in FIGS. 7C-7D. […]
Interactions between purified B-RAF and the KSR2:MEK1 complex were measured using biolayer inferometry on the Octet Red96 system (Forte Bio). […] Association and dissociation was monitored over 660 and 840 seconds, respectively. Data sets were normalized and analysed using global fit binding models (Fortebio software). […]

[2] = target: KSR2:MEK1 phosphorylation by B-RAF (Homo sapiens (Human), UniProt Q6VAB6); assay: RAF phosphorylation assay, KSR2:MEK1 substrate; format: biochemical; conditions: 10 μM compound, 100 μM ATP, pMEK Ser218/Ser222
Description: (§1) FIGS. 9A-9C show phosphorylation of MEK1, KSR2:MEK1, and KSR2^A690F:MEK1 by B-RAF over time in the presence of Compound 21. Relative pMEK was determined by quantification of band intensities from western blots using Image Lab Software 4.1.
(§2) In particular, a variant of B-RAF was identified that could be expressed in high yield from E. Coli and which also retained near wild-type levels of kinase activity towards MEK1. For in vitro kinase assays, indicated concentrations of B-RAF and 1 μM KSR2-MEK1 or 1 μM MEK1 proteins were pre-incubated with 10 μM of indicated compounds for 15 minutes in buffer containing 25 mM Tris pH 7.5, 150 mM NaCl, 10 mM MgCl2, and 2% DMSO. Kinase reactions were initiated by the addition of 100 μM ATP and halted at the indicated times by the addition of 6×SDS loading dye. Samples were examined by western blotting as described for the ATP-biotin experiments and by probing overnight with a MEK1/2 Ser218-Ser222 phospho-specific antibody (Cell signaling). Membranes were visualized using enhanced chemiluminescence on a Biodoc (Biorad) for quantification purposes.

[3] = tested on: MEK1 phosphorylation by B-RAF; assay: RAF phosphorylation assay, MEK1 alone (KSR absent); format: biochemical; conditions: 10 μM compound, free MEK1
Description: as §1, §2

[4] = target: KSR2^A690F:MEK1 phosphorylation by B-RAF (Homo sapiens (Human), UniProt Q6VAB6, A690F); assay: RAF phosphorylation assay, KSR2^A690F:MEK1 substrate; format: biochemical; conditions: 10 μM compound
Description: as §1, §2

RAF = assay: Inhibitory activity against purified RAF; format: biochemical
MEK = assay: Inhibitory activity against purified MEK; format: biochemical
HEK293 cells = assay: FBS-induced ERK activation in serum-starved HEK293 cells; format: cell-based; conditions: 2 h pre-treatment, 5% FBS induction, compared with KSR1 siRNA
Description: FIGS. 10A-10B show KSR1 knockdown and Compound 21 treatment similarly block FBS-induced ERK activation. In FIG. 10A, HEK293 cells were serum starved for 24 hours and simultaneously treated with two independent siRNAs against KSR1. siNTC was used as a scrambled control. After induction with 5% FBS, cells were harvested at […]. In FIG. 10B, HEK293 cells were similarly serum starved and pre-treated with Compound 21 for 2 h before induction. The cells were then induced with FBS as in FIG. 10A.

[5] = tested on: MAPK pathway readouts (pERK, pMEK, pRSK) in A375 and HCT-116; assay: Western blot of MAPK pathway readouts, treatment with trametinib combinations; format: cell-based
HCT-116 = assay: Cell viability, combination with trametinib, HCT-116; format: cell-based
Description: (§3) High BLISS scores indicate statistically significant synergy between Compound 21 and trametinib specifically within K-Ras mutant cells. Numbers listed within synergy matrices, representing % growth inhibition relative to DMSO controls, are mean of two replicates. Insets highlight dose responses of trametinib in the absence or presence of 1 μM Compound 21.
FIGS. 13A-13D show data validating that Compound 21 is synergistic with trametinib in Ras-mutant cells. […] FIGS. 13C-13D show log of the combination index (CI) graphs of Compound 21 in combination with trametinib in HCT-116 vs. SK-MEL-239 cells as compared to the fractional effect (Fa).
(§4) The viability ratio represented the viability observed for treated (inhibitors) relative to controls (DMSO).

A549 = assay: Cell viability, combination with trametinib, A549; format: cell-based; conditions: A549 (Ras-mutant)
Description: as §3, §4

[6] = tested on: ERK phosphorylation in HCT-116 cell line; assay: ERK phosphorylation dose response to trametinib, HCT-116; format: cell-based; conditions: HCT-116 (Ras-mutant)
[7] = tested on: ERK phosphorylation in SK-MEL-239 cell line; assay: ERK phosphorylation dose response to trametinib, SK-MEL-239; format: cell-based; conditions: SK-MEL-239 (RAF-mutant)

SMILES: COc1cc2ncnc(Nc3ccc(Oc4ccccc4)cc3C)c2cc1OC [Compound 21, 6,7-Dimethoxy-N-(2-methyl-4-phenoxyphenyl)quinazolin-4-amine 2,2,2-trifluoroacetate]
- suppression of KSR-stimulated MEK and ERK phosphorylation ([1]; KSR expression-dependent MAPK signaling): suppressed
- suppression of KSR-stimulated MAPK signaling with active site mutant KSR^A690F ([1]; KSR^A690F mutant): greatly diminished the activity
- association of KSR2:MEK1 with immobilized B-RAF^F667E (KSR2:B-RAF^F667E dimers): did not associate
- KSR-stimulated MEK phosphorylation by RAF [2]: significantly reduced
- MEK phosphorylation by RAF, KSR absent [3]: essentially inactive
- MEK phosphorylation by RAF, KSR2^A690F mutant [4]: essentially inactive
- inhibitory activity against purified RAF (RAF): lacked detectable inhibitory activity
- inhibitory activity against purified MEK (MEK): lacked detectable inhibitory activity
- effect on FBS-induced ERK activation (HEK293 cells): mimic the effects of RNAi based knockdown of KSR1
- MAPK pathway inhibition (pERK, pMEK, pRSK), single agent ([5]; alone, compared with Compound 21 + trametinib co-treatment): did not display the same pathway inhibition
- MAPK pathway inhibition (pERK, pMEK, pRSK) in combination with trametinib ([5]; combined with trametinib, A375 and HCT-116): reduction in MAPK pathway readouts
- shift of cell viability dose response to trametinib (HCT-116; HCT-116 (Ras-mutant)): shifted the cell viability dose response to trametinib
- combination index (CI) with trametinib (HCT-116; HCT-116, negative log CI over broad Fa range): strong synergy
- shift of cell viability dose response to trametinib (A549): shifted the cell viability dose response to trametinib
- enhancement in the IC90 of trametinib on ERK phosphorylation [6]: 2 fold
- enhancement in the IC90 of trametinib on ERK phosphorylation [7]: not
